Where a name gives a salt, the structure may show the parent alone.
Tests used:
[1] = test system: Chloroquine/Pyrimethamine resistant Plasmodium falciparum K1; test: In vitro sensitivity assay: Plasmodium falciparum by 3H-hypoxanthine incorporation; format: cell-based; settings: K1, Erythrocyte, read-out: IC50 K1 in vitro
Protocol: Biological Test 1: In Vitro Sensitivity Assays: Plasmodium falciparum by ^3H-Hypoxanthine Incorporation.
The strain used for this assay is the Chloroquine/Pyrimethamine resistant Plasmodium falciparum K1 and drugs such as Chloroquine (10 mg/mL stock; start concentration 1000 ng/mL) and Artemisinine (Qinghaosu) (5 mg/mL stock; start concentration 10 ng/mL) were used as standards. Human red blood cells were used as host cells and the activity was measured using a ^3H-hypoxanthine incorporation assay.
Into a Costar™ 96-well microtitre plates, 100 μL of medium (RPMI 1640 without hypoxanthine 10.44 g/L, HEPES 5.94 g/L, Albumax® 5 g/L, Neomycin 10 mL/L, NaHCO3 2.1 g/L) were added to the wells of row containing drugs available from stock solutions of 10 mg/mL in DMSO (compounds were kept at −20° C. Since DMSO is toxic, care had to be taken not to exceed a final concentration of 0.5% DMSO). Then 100 μL of medium were added at rt to all wells of the plate. By means of a 12-well multi-pipette serial drug dilutions were prepared. A serial dilution factor of 1:2 is thus obtained. One row of wells without drugs served as controls. Next 100 μL of medium+washed human red blood cells A+(RBC) was added to the last 4 wells of the first row; these columns serve as background controls (that may be caused by 3H-hypoxanthine incorporation into RBC without the parasite). Into the remaining wells, 100 μL of medium+RBC+P. falciparum mix was added. The plates were placed for 48 h into a chamber at 37° C. gassed with a 4% CO2, 3% O2, 93% N2 mix. Finally 50 μL of medium+3H-hypoxanthine [(500 μL ^3H-hypoxanthine stock+500 μL EtOH+49 mL medium (0.5 μCi)] was added to each well and the plates were put back at 37° C. for 24 h into the chamber and gassed with a 4% CO2, 3% O2, 93% N2 mix. The plates were then read using the Cell Harvester and the data were transferred into a graphic program (Excel) and are evaluated to determine the IC50 by linear interpolation.

[2] = test system: P. falciparum strain NF54; test: P. falciparum growth assay ([3H] hypoxanthine incorporation); format: cell-based; settings: Plasmodium falciparum, NF54, read-out: IC50 NF54
Protocol: • Cultivation of P. falciparum:
P. falciparum strain NF54 was obtained from the Research and Reference Reagent
Resource Center (MR4) (Manassas, Va.). The two strains were maintained in vitro by a modification of the method of Trager and Jensen. Cultures were maintained in A positive (A+) human erythrocytes suspended at 5% hematocrit in complete medium. 5 g albumax II (Gibco-Invitrogen, Cat No#11021037), 2.5 mg gentamicin (Sigma Aldrich), 25 mM HEPES (Invitrogen), 5 mg hypoxanthine (Sigma), and 1 L of RPMI 1640 (Invitrogen, Cat No#11875085). Cultures were grown in 100 mm petri-dishes (BD Falcon) at a volume of 15 mL and were kept in a standard gas environment of 4% CO2 and 3% 02 at temperature 37° C. in a tri-gas incubator (Cat#3131, Thermo Scientific Forma Series II Water Jacketed). Parasite growth and morphology were observed daily using thin smears at 100× (oil immersion) magnification following staining with Geimsa stain. • P. falciparum growth assay:
The protocol assesses the compound efficacy against the growth of P. falciparum in-vitro.
Parasite growth was detected in assay by the traditional [3H] hypoxanthine incorporation assay as previously described by Desjardins and colleagues (Antimicrob. Agents Chemother., 16(6), 710, 1979). To perform the [3H] hypoxanthine incorporation assay, the new antimalarial agents were serially diluted 1:1 into hypoxanthine-free complete medium to a final volume of 100 μL (final antimalarial agent concentration range, 10,000 nM to 4.8 nM may change in special case) in 96 well sterile cell culture plates. […] All cultures used in the study are albumax II adopted. The microtiter plates were incubated in chamber in a standard gas environment at 37° C. for 72 h. After 48 h of incubation and prior to addition of 50 μL (0.5 μCi/well) 3H-Hypoxanthine (specific activity, 20 Ci/mmol, Conc. 1.0 mCi/ml; American Radiolabeled Chemicals, Inc., St. Louis, Mo.), culture growth was assessed by making the smears that ensures the culture has grown in % p and assay plate is further incubated for 24 h. Following the incubation period, the plates were harvested with a FilterMate cell harvester (Perkin Elmer) onto unifilter-96 GF/B plates, washed with distilled water to remove excess radiochemical and plates were kept for drying 37° C. overnight or 60° C. for 1 h. 50 μL of Microscint scintillation cocktail (Microscint-High Efficiency LSC-Cocktail; Perkin Elmer) added in the unifilter-96 GF/B plates and kept for 15-20 min. The plates were counted in a Top Count NXT microplate scintillation and luminescence counter (Perkin Elmer). The mean values for [3H]hypoxanthine incorporation in parasitized control and non-parasitized control erythrocytes were calculated.
Assay data were analyzed using Graph pad prism ver.5 software. A variable sigmoid dose response curve is plotted keeping log concentrations at X-axis and % inhibition at Y-axis.

[3] = test system: Plasmodium berghei, (GFP ANKA strain); test: Plasmodium berghei acute in vivo model; settings: NMRI mice, 50 mg/kg/day i.p., 4 daily doses; for decrease of parasitemia: day 4, relative to untreated control group; for Mean Survival Days: survival monitored up to 30 days
Protocol: Biological Test 2: Plasmodium berghei Acute In Vivo Model.
For this study Plasmodium berghei, (GFP ANKA strain) was used as parasite strain and drugs such as Chloroquine (Sigma C6628) Artemisinin (Sigma 36, 159-3) were used as positive controls.
For the assay a donor mouse with approximately 30% parasitaemia, heparinised blood (containing 50 μL of 200 μ/mL Heparin) was taken and diluted in physiological saline to 10^8 parasitized erythrocytes per mL. An aliquot (0.2 mL) of this suspension was injected intravenously (i.v.) into experimental groups of 3 mice (NMRI mice, females, 20-22 g), and a control group of 3 mice. The mice were studied in a standard macrolon cages type II at 22° C. and 60-70% relative humidity, and were fed with special pellets (PAB45—NAFAG 9009, Provimi Kliba A G, CH-4303 Kaiseraugst, Switzerland), water ad libitum. 4 hours post-infection—the experimental groups were treated with a single dose i.p of the tested drug. The dosage was 50 mg/kg/day and the drug concentration (DMSO 10%) was adjusted so that 0.1 mL/10 g was injected. In a similar manner after 24, 48 and 72 hours post-infection—the experimental groups were treated with a single daily dose i.p. Finally 24 hours after the last drug treatment, 1 μL tail blood was taken and dissolved in 1 mL PBS buffer. Parasitaemia was determined with a FACScan (Becton Dickinson) by counting 100'000 red blood cells. The difference between the mean value of the control group and those of the experimental groups was then calculated and expressed as a percent relative to the control group (=activity). The survival of the animals was monitored up to 30 days and mice surviving for 30 days were checked for parasitaemia and subsequently euthanised. A compound is considered curative if the animal survives to day 30 post-infection with no detectable parasites. The result is expressed as 1) reduction of parasitaemia on day 4 in % as compared to the untreated control group, and 2) mean survival of the group.
B. Franke-Fayard et al., Mol. Biochem. Parasitol., 137(1),23-33, 2004

[4] = test system: P falciparum PF3D/^0087/N9; test: In vivo efficacy in a murine model of falciparum-malaria (4-day test); set-up: species or system Plasmodium falciparum
Text: Biological Experiment 5: In Vivo Efficacy Against P falciparum PF3D/^0087/N9 for the compound No. 6 Described in Example 6 • In vivo activity in a murine model of falciparum-Malaria Angulo-Barturen I, Jimenez-Diaz M B, Mulet T, Rullas J, Herreros E, et al. (2008) A Murine Model of falciparum-Malaria by In Vivo Selection of Competent Strains in Non-Myelodepleted Mice Engrafted with Human Erythrocytes. PLoS ONE 3(5): e2252. doi:10.1371/journal.pone.0002252.
This study measures the therapeutic efficacy of compound no. 6 against Plasmodium falciparum growing in peripheral blood of NODscidIL2Rynull mice engrafted with human erythrocytes. The antimalarial efficacy of compound no. 6 is assessed using a “4-day test”.
The parameters of efficacy estimated in the study are a) the dose of compound no. 6 in mg·kg-1 that reduces parasitemia at day 7 after infection by 90% with respect to vehicle-treated mice (parameter denoted as ED90) and b) the estimated average daily exposure in whole blood of compound no. 6 necessary to reduce P. falciparum parasitemia in peripheral blood at day 7 after infection by 90% with respect to vehicle-treated mice (parameter used to measure the potency of the compound and denoted as AUCED90).

Compound	IC50 [1]	IC50 [2]	further results
O[C@H]1CNCC[C@@H]1n1c2ccc(Cl)cc2c2cc(Cl)ccc21 (racemic) [Compound 5, Trans-4-(3,6-Dichloro-carbazol-9-yl)-piperidin-3-ol hydrochloride salt]	9 nM	109 nM	–
O[C@H]1CNCC[C@@H]1n1c2ccc(F)cc2c2cc(Cl)ccc21 [Compound 3, (3S,4S)-4-(3-Chloro-6-fluoro-carbazol-9-yl)-piperidin-3-ol hydrochloride salt]	3 nM	–	–
O[C@@H]1CNCC[C@H]1n1c2ccc(F)cc2c2cc(Cl)ccc21 [Compound 4, (3R,4R)-4-(3-Chloro-6-fluoro-carbazol-9-yl)-piperidin-3-ol hydrochloride salt]	3 nM	–	–
O[C@H]1CNCC[C@@H]1n1c2ccc(Cl)cc2c2cc(Cl)ccc21 [Compound 6, (3S,4S)-4-(3,6-Dichloro-carbazol-9-yl)-piperidin-3-ol hydrochloride salt]	10 nM	40.2 nM	decrease of parasitemia [3]: 99.8%; Mean Survival Days [3]: 30 days; ED90 ([4]; dose reducing parasitemia at day 7 after infection by 90% vs vehicle-treated mice, NODscidIL2Rynull mice engrafted with human erythrocytes): 22.5 mg/kg; AUCED90 ([4]; estimated average daily exposure in whole blood needed to reduce parasitemia at day 7 by 90% vs vehicle-treated mice): 28.5 μg · h · ml^−1 · day^−1
O[C@@H]1CNCC[C@H]1n1c2ccc(Cl)cc2c2cc(Cl)ccc21 [Compound 7, (3R,4R)-4-(3,6-Dichloro-carbazol-9-yl)-piperidin-3-ol hydrochloride salt]	9 nM	41.2 nM	decrease of parasitemia [3]: 100%; Mean Survival Days [3]: 30 days
O[C@H]1CNCC[C@@H]1n1c2ccc(F)cc2c2cc(F)ccc21 [Compound 9, (3S,4S)-4-(3,6-Difluoro-carbazol-9-yl)-piperidin-3-ol hydrochloride salt]	16 nM	307 nM	–
O[C@@H]1CNCC[C@H]1n1c2ccc(F)cc2c2cc(F)ccc21 [Compound 10, (3R,4R)-4-(3,6-Difluoro-carbazol-9-yl)-piperidin-3-ol hydrochloride salt]	33 nM	–	–
F[C@@H]1CNCC[C@@H]1n1c2ccc(Cl)cc2c2cc(Cl)ccc21 [Compound 11, 3,6-Dichloro-9-((3R,4S)-3-fluoro-piperidin-4-yl)-9H-carbazole hydrochloride salt]	1150 nM	–	–
Fc1ccc2c(c1)c1cc(Cl)ccc1n2[C@@H]1CCNC[C@@H]1F [Compound 12, 3-Chloro-6-fluoro-9-((3S,4R)-3-fluoro-piperidin-4-yl)-9H-carbazole hydrochloride salt]	3670 nM	–	–
Fc1ccc2c(c1)c1cc(Cl)ccc1n2[C@H]1CCNC[C@H]1F [Compound 13, 3-Chloro-6-fluoro-9-((3R,4S)-3-fluoro-piperidin-4-yl)-9H-carbazole hydrochloride salt]	886 nM	–	–
O[C@@H]1CNCC[C@H]1n1c2ccccc2c2ccccc21 [Compound 15, (3R,4R)-4-Carbazol-9-yl-piperidin-3-ol hydrochloride salt]	383 nM	–	–
O[C@H]1CNCC[C@@H]1n1c2ccccc2c2ccccc21 [Compound 16, (3S,4S)-4-Carbazol-9-yl-piperidin-3-ol hydrochloride salt]	364 nM	–	–

Source: US9908863B2, “Piperidinylcarbazoles” (Merck Patent GmbH, priority 2013, dated 2018)
